Laboratory results: patent US10399931B2, “Octahydroanthracene compound, preparation method and application thereof” (SHANDONG XINHUA PHARMACEUTICAL CO., LTD., priority 2016, dated 2019)
Entries after “also recorded” stand apart in the source; their conditions may differ.

Legend:
[1] = test system: Aβ metabolizing enzymes NEP and IDE; assay: Expression of Aβ metabolizing enzymes in the brain of APP/PS1 mice; type: in vivo
Method: After the behavioral experiment, the animals were anesthetized with an intraperitoneal injection of 3.5% chloral hydrate and cut off the heads quickly to take out the brains. The hippocampus and cortex of the brain were separated on ice, and then weighed and quickly frozen with liquid nitrogen, placed in a refrigerator at −80° C. for standby application.
The tissue lysate (5 μL PMSF protease inhibitor per mL of lysate) was added to the frozen brain tissue at a ratio of […] (6 mL/g tissue), and ultrasonically homogenized in an ice bath. After homogenization, the tissue homogenate was placed in crushed ice for 30 min, and then centrifuged at 12,000×g for 20 min at 4° C. The supernatant (about 200 μL) was taken and stored in a refrigerator at −80° C. for later use. A portion of the supernatant was taken for protein quantification.
Grayscale scanning of the X film was performed and the results were analyzed by the image analysis software of Quantity One 4.6.2. Differences and changes in the expression of the detected proteins between the groups were determined using β-actin as an internal reference. The relative value was calculated by the formula.

tau protein = assay: Tau protein phosphorylation; set-up: species or system mice; details: mouse, in vivo
[2] = test system: APP/PS1 double transgenic AD model mice; assay: Behavioral experiments (new object discrimination, Y-maze, Morris water maze, nesting, social interaction); type: in vivo; details: 14 days or 3 months
Method: The drugs were administered three days after the adaptive feeding. Peanut oil was used as the solvent. The drug was intragastric administered once a day for 15 days. On the 6th to 9th day after the administration, the new object identification test was performed. On the 10th day, the Y-maze test was performed. On the 11th to 15th day, the Morris water maze test was performed to determine the improvement of learning and memory. The administration of the drugs was continued during the behavioral experiment until the animals were sacrificed (16th day). The experimental device is a wooden square open field with a size of 50 cm×50 cm×15 cm. […] The mouse was placed back to the objects at equal distance from the two identical objects on the other side of the experimental device, and the time (tA1, tA2) used to explore the two objects within 5 minutes was recorded. After 1 h, A2 was replaced with a new object (B) and the mouse was placed in the test site again, the time (tA1, tB) used to explore the two objects was recorded. After 24 h, the object B was replaced with a new object (C), and the mouse was placed in the test site again, the time (tA1, tC) used to explore the two objects was recorded. […] The preferential index and the discrimination index of the new objects for each group of the experimental mice were calculated separately. […]

APP/PS1 transgenic mice = assay: Social interaction experiment; type: in vivo; details: 200 mg/kg
Method: The social interaction device was composed of a square box (length×width×height: 50 cm×50 cm×15 cm). The behavioral laboratory used diffuse and dim light (25 W) and tried to avoid environmental stress caused by shadows in the experimental area. Before the social interaction experiment, in order to eliminate the influence of unfamiliar environment, each mouse was placed in the experimental device alone to adapt to the environment, 10 min each day for two consecutive days. At the beginning of the test on day 3, the mouse was randomly paired with another strange partner. Two groups of experimental animals were placed in the experimental device at the same time, and the time spent by the mice in the active social interaction behavior was recorded. The test time was 10 min, including sniffing, combing, and scratching or chasing each other. However, passive contact activities (overwhelmed or being ridden by the other mouse, etc.) are not recorded in the social interaction behavior. After each test, 1% bromo geramine was used to disinfect the social interaction device.

mice = assay: LD50 test, single intragastric dose (preliminary safety evaluation); type: in vivo; details: 5000 mg/kg intragastric
[3] = test system: APP/PS1 double transgenic AD model mice; assay: Safety observations during repeated administration in the behavioral experiment; type: in vivo; details: for Organ index of heart, liver, spleen and kidney: repeated administration (3 consecutive months)
Method: OAB-14 at a doge of 50, 100 and 200 mg/kg were respectively given to APP/PS1 double transgenic AD model mice aged 8 months by continuous intragastric administration for 14 days or 3 months (to 11 months old, equivalent to the middle- and late-aged AD), using donepezil as a positive control.

For CC1(C)CCC(C)(C)c2c1cc1c(c2NC(=O)c2ccc(NC(=O)NCCN)cc2)C(C)(C)CCC1(C)C [OAB-14, 1-(2-amino) ethyl-3-{4-[(1,1,4,4,5,5,8,8-octamethyl-1,2,3,4,5,6,7,8-octahydro-9-anthryl)carbamoyl]phenyl} urea], the “Expression of Aβ metabolizing enzymes NEP and IDE in the brain” value [1] was “increasing the expression”, the Tau protein phosphorylation (tau protein) was “reducing the tau protein phosphorylation” and the “Learning and memory disorders in new object discrimination, Y-maze, Morris water maze, nesting and social interaction tests” value ([2]; 50, 100 and 200 mg/kg intragastric, 8-month-old APP/PS1 mice) was “dose-dependently improve”. For the same molecule, the “Behavioral effect of the high-dose group compared with donepezil and blank groups” value ([2]; high-dose group) was “significantly stronger than that of the donepezil group and completely restored to the level of the blank control group; also recorded: significantly stronger than the donepezil group and completely recovered to the level of the blank group”, the “Active contact time vs model group” value (APP/PS1 transgenic mice) was “significantly increased” and the “Abnormalities in organs such as heart, liver, spleen and kidney” value (mice) was “no abnormalities were detected”. For the same molecule, the “Adverse reactions observed with the naked eye” value (mice) was “no visible adverse reactions were observed”, the “Changes in the main organ tissue sections compared with the blank group” value ([3]; 14 days or 3 months) was “no changes were observed” and the “General condition of the mice” value ([3]; low, medium and high dose, 3 consecutive months) was “in good condition”. The “Organ index of heart, liver, spleen and kidney” value ([3]; low, medium and high dose) was “not abnormal” and the “Organ index of heart, liver, spleen and kidney” value ([3]; low, medium and high dose, listed as OAR-14) was “not seen to be abnormal”.
